Test results as given in PMC5361186 (Scientific Reports, 2017).
Where “and” joins values, the source holds several entries; their conditions need not be identical. Equal entries are not always repeated. No end group written: not given here.

Legend:
α-chymotrypsin [1] = biological target: T1, α-chymotrypsin (Bos taurus, UniProt P00766, DEL14-15/DEL147-148); assay: Resistance to chymotryptic cleavage; type: in vitro ADME, bovine pancreas; conditions: peptide 10 μg/ml, 0.1 mol/L TRIS-HCl pH 7.8, urea 120 mg/mL, α-chymotrypsin E:P 1:200, 24 h, 37 °C
T1 construct: purchased Sigma-Aldrich (Steinheim, Germany)
Method: Preliminary experiments using a combination of pepsin and trypsin/chymotrypsin (PTC) for enzymatic hydrolysis were performed with the 33-mer. This PTC hydrolysate of the 33-mer was analysed by untargeted LC-MS/MS followed by data evaluation using the MS/MS ions search module of the Mascot software based on the NCBI database (National Library of Medicine, Bethesda, MD, USA). In addition to the original 33-mer, the truncated forms after N-terminal removal of leucine resulting in a 32-mer (m/z 950.0, 4+ and m/z 1266.3, 3+) and pyro-32-mer (m/z 945.7, 4+ and m/z 1260.6, 3+) were identified, but no 30-mer (m/z 889.7, 4+ and m/z 1185.9, 3+) after potential removal of N-terminal LQL. The ratio 33-mer/32-mer/pyro-32-mer was about 12/76/12. To see whether cleavage of the N-terminal leucine could be minimised, only chymotrypsin was used for further experiments. Therefore, the 33-mer peptide was incubated with chymotrypsin using exactly the same conditions as described for the samples to check its resistance towards cleavage, because it contains two potential chymotryptic cleavage sites at positions L1 and L3. […] Full MS/MS scans were also done for the chymotryptic hydrolysates of the albumin/globulin and gliadin fractions obtained from wheat cv. MJO. […] This is consistent with the original report by Shan et al.[4] who only observed pepsin-catalysed cleavage of the N-terminal leucine. Additionally, no analyte loss is expected to take place during sample preparation, which involves the removal of albumins/globulins.
(§1) First, flours (150–200 mg) were defatted with pentane/ethanol (95/5, v/v; 2 × 2.0 mL)[40]. The gliadin fractions from the different defatted flours were extracted as described above. […] The obtained peptide mixture was dried using a vacuum centrifuge (40 °C, 6 h, 800 Pa), re-dissolved in FA (0.1%, v/v, 500 μL), filtered (0.45 μm) and analysed by targeted LC-MS/MS. […] MJO, which were all analysed by untargeted LC-MS/MS. […]

α-chymotrypsin [2] = assay: α-chymotrypsin (E:P ratio of 1:200) in TRIS-HCl-buffer (0.1 mol/L TRIS-HCl, pH 7.8, urea 120 mg/mL); conditions: bovine pancreas, 37 °C, up to 24 h
intestinal peptidases [3] = assay: intestinal peptidases; conditions: cited from earlier work
pepsin = assay: pepsin; conditions: cited from earlier work
[4] = system: tissue transglutaminase (TG2); assay: tissue transglutaminase (TG2); conditions: cited from earlier work
[5] = system: pepsin and trypsin/chymotrypsin (PTC); assay: pepsin (in 0.01 mol/L HCl, pH 2.0, E:P ratio of 1:25) followed by trypsin and α-chymotrypsin (in 0.05 mol/L phosphate buffer, pH 6.5, E:P ratio of 1:200); conditions: porcine gastric mucosa (pepsin); bovine pancreas (trypsin, α-chymotrypsin), 37 °C, up to 60 min (pepsin) followed by 120 min (trypsin and α-chymotrypsin)
intestinal peptidases [6] = conditions: 5 (Shan et al. 2002); cited from earlier work
From the text: All gluten protein fractions, namely the alcohol-soluble prolamins and the insoluble glutelins, contain CD-active epitopes. The prolamin fraction is particularly rich in proline and glutamine and the numerous proline residues lead to a high resistance to complete proteolytic digestion by human gastric, pancreatic, and brushborder enzymes. […] The 33-mer is widely ca ...

[7] = system: pepsin and trypsin/chymotrypsin (PTC); assay: Enzymatic hydrolysis of the 33-mer with pepsin and trypsin/chymotrypsin (PTC); type: in vitro ADME; conditions: untargeted LC-MS/MS
Method: Preliminary experiments using a combination of pepsin and trypsin/chymotrypsin (PTC) for enzymatic hydrolysis were performed with the 33-mer. This PTC hydrolysate of the 33-mer was analysed by untargeted LC-MS/MS followed by data evaluation using the MS/MS ions search module of the Mascot software based on the NCBI database (National Library of Medicine, Bethesda, MD, USA). In addition to the original 33-mer, the truncated forms after N-terminal removal of leucine resulting in a 32-mer (m/z 950.0, 4+ and m/z 1266.3, 3+) and pyro-32-mer (m/z 945.7, 4+ and m/z 1260.6, 3+) were identified, but no 30-mer (m/z 889.7, 4+ and m/z 1185.9, 3+) after potential removal of N-terminal LQL. The ratio 33-mer/32-mer/pyro-32-mer was about 12/76/12. To see whether cleavage of the N-terminal leucine could be minimised, only chymotrypsin was used for further experiments. […]
as §1, with “mL)[40].” for “mL)[40]. The gliadin fractions from the different defatted flours were extracted as described above.”

For “LQLQP*FPQPQLPYPQPQLPYPQPQLPYPQ*PQ*P*F [*33-mer, [13C28]- and [15N4]-labelled 33-mer peptide used as isotopically labelled internal standard]”, the “stability towards chymotryptic cleavage, looking for *32-mer, pyro-*32-mer and *30-mer” value (α-chymotrypsin [1]; full MS/MS scans) was “stable under the conditions applied”.
For LQLQPFPQPQLPYPQPQLPYPQPQLPYPQPQPF, the not cleaved (α-chymotrypsin [2]) is given as “no detectable amounts of 32-mer, pyro-32-mer or 30-mer, only the intact 33-mer”, the not cleaved (intestinal peptidases [3]) is given as “resistant to cleavage by intestinal peptidases” and the cleaved bond (pepsin) is given as “leucine1-Q”. The fragment found [4] was 33-mer deamidated at glutamine 72 and 33-mer deamidated at glutamine 65, the cleaved bond [5] was “leucine1-Q” and the fragment found [5] was “pyro-32-mer”. For the same substance, the not cleaved [5] was “no 30-mer identified”.
In the case of “LQLQPFPQPQLPYPQPQLPYPQPQLPYPQPQPF [33-mer]”, the “forms detected after incubation with chymotrypsin, full MS/MS scans of the m/z of 32-mer, pyro-32-mer and 30-mer” value (α-chymotrypsin [1]; full MS/MS scans, target mass ± 1) is listed as “only the intact 33-mer”, the “truncated forms after incubation with chymotrypsin, untargeted LC-MS/MS” value (α-chymotrypsin [1]; untargeted LC-MS/MS) is listed as “no truncated forms” and the “cleavage by intestinal peptidases” value (intestinal peptidases [6]) is listed as “resistant to cleavage by intestinal peptidases”. For the same substance, the “ratio 33-mer/32-mer/pyro-32-mer in the PTC hydrolysate” value ([7]; pepsin in 0.01 mol/L HCl, pH 2.0, 60 min, 37 °C, E:P 1:25, then trypsin and α-chymotrypsin in 0.05 mol/L phosphate buffer, pH 6.5, 120 min, 37 °C, E:P 1:200, Mascot, preliminary experiments) was “about 12/76/12” and the “30-mer after potential removal of N-terminal LQL in the PTC hydrolysate” value ([7]; same PTC conditions as E1) was “no 30-mer”.
